Results: patent publication US5223169A, “Hydrolase surfactant systems and their use in laundering” (priority 1991, dated 1993)

Legend:
Experiment in all cases: pH-stat assay of triglyceride emulsion hydrolysis; critical oil-to-surfactant ratio
Enzyme Amano P = biological target: T1, Enzyme Amano P (Burkholderia cepacia, UniProt P22088); assay type: biochemical, P. fluorescens
T1 construct: purchased Amano Co
Description: (§1) To determine the critical ratio for any specific enzyme-surfactant combination, aliquots of an aqueous solution, each containing a determined (constant) amount of the enzyme which is effective in the absence of any surfactant to hydrolyze the triglycerides in an oily stain on a determined (constant) amount of a fabric soiled by a determined (constant) amount of a triglyceride oil, are mixed with a determined (constant) amount of a surfactant which is within the range of the amounts conventionally present in home laundry solutions, e.g., from about 0.2 to 1.5. mM, and which is effective to inhibit the hydrolyzing activity of the enzyme. To the aliquots are added a hydrolysis activator, e.g., trioctanoin, in increasing amounts and the hydrolyzing activity of the enzyme in the various solutions is determined.
(§2) The experiments determining enzyme activity, such as those set out in Tables IA and IB, were carried out as follows:
(§3) The desired amount of triglyceride was weighed into an appropriate size beaker, on a Mettler balance (model number AE163). The corresponding amount of surfactant was added to the triglyceride, from a previously prepared aqueous surfactant stock solution, and the triglyceride and surfactant mixed manually. The sample was then adjusted to the desired weight using doubly distilled H2 O. Emulsification of the sample was carried out, prior to assaying enzyme activity, with a probe sonicator (Braun-Sonic model 2000), on ice, for approx. 2 minutes.
(§4) (ii) Enzyme Activity Measurement:
(§5) This was achieved by monitoring the rate of acid liberation, from the enzymatic hydrolysis of the triglycerides in the emulsion. The assay was initiated by adding approx. 2 ppm lipase to 10 ml of the prepared emulsion. The acid liberated was monitored by autotitration, on a Radiometer pH-stat (model number ABU80) to an endpoint of a pH of 10. Initial rates were recorded for the first 5 minutes of the reaction, and the reaction rates reported as μmole H^+ titrated . min ^-1 mgE^-1. Occasionally enzyme activity is reported as % total oil hydrolyzed in 14 min. In these examples, the reaction was allowed to run for 14 min. and the amount of acid titrated recorded. The % total oil (triglyceride) hydrolyzed was then calculated by dividing the recorded value with the theoretically calculated value assuming three equivalents of oleic acid was produced for each triglyceride equivalent. All assays were run at ambient temperatures.

Enzyme Lipolase = biological target: T2, Enzyme Lipolase (Thermomyces lanuginosus, UniProt O59952); assay type: biochemical, A. oryzae; conditions: for Critical Ratio, LIPOLASE: trioctanoin emulsions, lipase ~2 ppm; for R, critical (minimum activating molar) ratio, LIPOLASE: triolein emulsions
T2 construct: purchased Novo Industri; host or cells: Aspergillus oryzae
T2 sequence (O59952 23-291): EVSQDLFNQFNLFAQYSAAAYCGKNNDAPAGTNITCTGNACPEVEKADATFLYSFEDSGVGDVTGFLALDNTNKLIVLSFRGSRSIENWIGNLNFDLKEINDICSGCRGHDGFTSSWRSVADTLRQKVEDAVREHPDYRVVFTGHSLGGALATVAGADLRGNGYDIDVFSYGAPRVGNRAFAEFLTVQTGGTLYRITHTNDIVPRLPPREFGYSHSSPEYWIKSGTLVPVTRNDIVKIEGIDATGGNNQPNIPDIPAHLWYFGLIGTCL
Description: as §1, §2, §3, §4, §5

[1] = system: enzyme from P. putida ATCC 53552 (lipase GC-1065); assay type: biochemical, Pseudomonas putida
Description: as §1, §2, §3, §4, §5

Enzyme Amano 68S = assay type: biochemical, P. sp.; conditions: for Critical Ratio / Enzyme Activity: surfactant conc.: SDS 1 mM
Description: as §1, §2, §3, §4, §5

[2] = Table III, trioctanoin, surfactant conc.: SDS 2 mM, C12 LAS 1 mM, Neodol 25-3S 2 mM, Neodol 25-9 0.5 mM, Surfonic JL80X 0.5 mM
[3] = Table Summary, second block of lines (corresponds to triolein Tables VI-IX)
[4] = triolein emulsions, high conc.: SDS 10 mM, C12 LAS 5 mM, Neodol 25-9 5 mM, Neodol 25-3S 5 mM, Surfonic JL-80X 2.5 mM
[5] = Table II, trioctanoin, surfactant conc.: SDS 2 mM, C12 LAS 1 mM, Neodol 25-3S 2 mM, Neodol 25-9 0.5 mM, Surfonic JL80X 0.5 mM, Triton X100 2 mM
[6] = Table VI, triolein, surfactant conc.: SDS 1 mM, C12 LAS 0.5 mM, Neodol 25-3S 1 mM, Neodol 25-9 0.5 mM, Surfonic JL80X 0.5 mM
[7] = Table IV, trioctanoin, C12 LAS 0.2 mM, Neodol 25-3S 0.5 mM, Neodol 25-9 0.5 mM, Surfonic JL80X 0.5 mM
[8] = Table VIII, triolein, C12 LAS 0.5 mM, Neodol 25-3S 0.5 mM, Neodol 25-9 0.5 mM, Surfonic JL80X 2.5 mM

T1 sequence (P22088 45-364): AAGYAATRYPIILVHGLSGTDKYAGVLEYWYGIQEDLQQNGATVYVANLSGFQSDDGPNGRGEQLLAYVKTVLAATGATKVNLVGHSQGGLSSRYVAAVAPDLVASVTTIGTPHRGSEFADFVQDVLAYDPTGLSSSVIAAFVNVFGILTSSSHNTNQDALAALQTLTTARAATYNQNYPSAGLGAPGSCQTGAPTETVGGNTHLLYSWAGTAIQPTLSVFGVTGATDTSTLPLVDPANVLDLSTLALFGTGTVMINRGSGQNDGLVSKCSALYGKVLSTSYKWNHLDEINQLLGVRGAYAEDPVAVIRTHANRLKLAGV

CCCCCCCCCCCCc1ccc(S(=O)(=O)O)cc1 [C12 LAS]
Critical Ratio (Enzyme Amano P; [2]): 5-20 | Enzyme Activity (Enzyme Amano P; [2]): 70 μmole H^+ released min^-1 mgE^ | critical ratio class, Amano P (Enzyme Amano P; [3]): - (means a critical ratio of 10-100) | Enzyme Activity (Enzyme Amano P; Table VII, triolein, surfactant conc.: SDS 1 mM, others 0.5 mM): 13 μmole H^+ released min^-1 mgE^ | Specific Activity determined from initial rates, AMANO P, High (Enzyme Amano P; trioctanoin emulsions, high surfactant conc. as E43): 70 μeq acid/min.mg | Critical Ratio, AMANO P, High (Enzyme Amano P; trioctanoin emulsions, lipase ~2 ppm, high conc.: SDS 10 mM, C12 LAS 5 mM, Neodol 25-9 5 mM, Neodol 25-3S 20 mM, Surfonic JL-80X 5 mM): 5-10 | Critical Ratio, AMANO P, Low (Enzyme Amano P; trioctanoin emulsions, lipase ~2 ppm, low conc.: SDS 2 mM, C12 LAS 1 mM, Neodol 25-9 0.5 mM, Neodol 25-3S 2.0 mM, Surfonic JL-80X 0.5 mM): 5-10 | Specific Activity determined from initial rates, AMANO P, Low (Enzyme Amano P; trioctanoin emulsions, low surfactant conc. as E42): 70 μeq acid/min.mg | Activity (specific hydrolysis activity from initial rates), AMANO P, High (Enzyme Amano P; triolein emulsions, high conc. as E57): 26 μeq acid/min./mg | R, critical (minimum activating molar) ratio, AMANO P, High (Enzyme Amano P; [4]): 10-20 | Activity (specific hydrolysis activity from initial rates), AMANO P, Low (Enzyme Amano P; triolein emulsions, low conc. as E56): 13 μeq acid/min./mg | R, critical (minimum activating molar) ratio, AMANO P, Low (Enzyme Amano P; triolein emulsions, low conc.: SDS 1 mM, others 0.5 mM): 10-20 | Critical Ratio (Enzyme Lipolase; Table IX, triolein, C12 LAS 0.5 mM): 30-40 | critical ratio class, Lipolase (Enzyme Lipolase; [3]): - (means a critical ratio of 10-100) | Critical Ratio (Enzyme Lipolase; Table V, trioctanoin, each surfactant 0.5 mM): 0.5-1 | Critical Ratio, LIPOLASE (Enzyme Lipolase; surfactant 0.5 mM): 0.5-1 | Critical Ratio, LIPOLASE (Enzyme Lipolase; surfactant 5 mM): 0.5-1 | R, critical (minimum activating molar) ratio, LIPOLASE (Enzyme Lipolase; surfactant 0.5 mM): 30-40 | R, critical (minimum activating molar) ratio, LIPOLASE (Enzyme Lipolase; surfactant 5.0): 40-50 | Critical Ratio [1, 5]: 5-10 | Enzyme Activity [1, 5]: 250 μmole H^+ released min^-1 mgE^ | critical ratio class, enzyme From ATCC 53552 [1, 3]: 0 (means a critical ratio of 1.0-10) | Critical Ratio [1, 6]: 5-10 | Enzyme Activity [1, 6]: 50 μmole H^+ released min^-1 mgE^ | Critical Ratio ([1]; Table XVIII, triolein, Pseudomonas putida enzyme, surfactant 0.5 mM): 5-10 | Critical Ratio ([1]; Table XVIII, triolein, Pseudomonas putida enzyme, surfactant 5.0 mM): 1-5 | Specific Activity determined from initial rates, GC-1065, High ([1]; trioctanoin emulsions, high surfactant conc. as E41): 250 μeq acid/min.mg | Critical Ratio, GC-1065, High ([1]; trioctanoin emulsions, lipase ~2 ppm, high surfactant conc.: SDS 10 mM, C12 LAS 5 mM, Neodol 25-9 5 mM, Neodol 25-3S 10 mM, Surfonic JL-80X 5 mM, Triton X-100 10 mM, C16 DAPS 10 mM): 5-10 | Critical Ratio, GC-1065, Low ([1]; trioctanoin emulsions, lipase ~2 ppm, low surfactant conc.: SDS 2 mM, C12 LAS 1 mM, Neodol 25-9 0.5 mM, Neodol 25-3S 2 mM, Surfonic JL-80X 0.5 mM, Triton X-100 2 mM, C16 DAPS 0.5 mM): 2-10 | Specific Activity determined from initial rates, GC-1065, Low ([1]; trioctanoin emulsions, low surfactant conc. as E40): 250 μeq acid/min.mg | Activity (specific hydrolysis activity from initial rates), GC-1065, High ([1]; triolein emulsions, high conc. as E55): 60 μeq acid/min./mg | R, critical (minimum activating molar) ratio, GC-1065, High [1, 4]: 1-5 | Activity (specific hydrolysis activity from initial rates), GC-1065, Low ([1]; triolein emulsions, low conc. as E54): 50 μeq acid/min./mg | R, critical (minimum activating molar) ratio, GC-1065, Low ([1]; triolein emulsions, low conc.: SDS 1 mM, C12 LAS 0.5 mM, Neodol 25-9 0.5 mM, Neodol 25-3S 1 mM, Surfonic JL-80X 0.5 mM): 5-10 | Critical Ratio (Enzyme Amano 68S; [7]): 5-10 | Enzyme Activity (Enzyme Amano 68S; [7]): 175 μmole H^+ released min^-1 mgE^ | critical ratio class, Amano 68S (Enzyme Amano 68S; [3]): - (means a critical ratio of 10-100) | Critical Ratio (Enzyme Amano 68S; [8]): 10-20 | Enzyme Activity (Enzyme Amano 68S; [8]): 30 μmole H^+ released min^-1 mgE^ | Specific Activity determined from initial rates, AMANO 68S, High (Enzyme Amano 68S; trioctanoin emulsions, high surfactant conc. as E45): 200 μeq acid/min.mg | Critical Ratio, AMANO 68S, High (Enzyme Amano 68S; trioctanoin emulsions, lipase ~2 ppm, high conc.: SDS 10 mM, C12 LAS 2 mM, Neodol 25-9 5 mM, Neodol 25-3S 10 mM, Surfonic JL-80X 5 mM): 1-5 | Critical Ratio, AMANO 68S, Low (Enzyme Amano 68S; trioctanoin emulsions, lipase ~2 ppm, low conc.: SDS 1 mM, C12 LAS 0.2 mM, Neodol 25-9 0.5 mM, Neodol 25-3S 0.5 mM, Surfonic JL-80X 0.5 mM): 5-10 | Specific Activity determined from initial rates, AMANO 68S, Low (Enzyme Amano 68S; trioctanoin emulsions, low surfactant conc. as E44): 175 μeq acid/min.mg | Activity (specific hydrolysis activity from initial rates), AMANO 68S, High (Enzyme Amano 68S; triolein emulsions, high conc. as E59): 55 μeq acid/min./mg | R, critical (minimum activating molar) ratio, AMANO 68S, High (Enzyme Amano 68S; triolein emulsions, high conc.: SDS 10 mM, C12 LAS 5 mM, Neodol 25-9 5 mM, Neodol 25-3S 5 mM, Surfonic JL-80X 2.5 mm): 10-20 | Activity (specific hydrolysis activity from initial rates), AMANO 68S, Low (Enzyme Amano 68S; triolein emulsions, low conc. as E58): 30 μeq acid/min./mg | R, critical (minimum activating molar) ratio, AMANO 68S, Low (Enzyme Amano 68S; triolein emulsions, low conc.: SDS 1 mM, C12 LAS 0.5 mM, Neodol 25-9 0.5 mM, Neodol 25-3S 0.5 mM, Surfonic JL-80X 2.5 mM): 10-20
